Molecular target: α-chymotrypsin (α-Chymo) (Bos taurus, UniProt P00766)
Assay: UV-Visible titration (Benesi-Hildebrand binding constant), supported by tryptophan fluorescence quenching (Ksv […] at […] K, static) and CD

In the case of `CNc1ccc2nc3ccc(N)cc3[s+]c2c1` [AzC, AzureC], the Kd is reported as 17.5 µM.

— article PMC9863556, “Influence of Green Synthesized Zinc Oxide Nanoparticles on Molecular Interaction and Comparative Binding of Azure Dye with Chymotrypsin: Novel Nano-Conjugate for Cancer Phototherapy” (Pharmaceutics, 2022)
